Results published in US20030199457A1, “Prevention and treatment of thromboembolic disorders associated with arterial & venous thrombosis” (priority 2002, published 2003).

B1: Abciximab: monoclonal antibody for GPIIb/IIIa (c7E3 Fab) (antibody, chains of the INN, looked up, V domains shown)
VH: EVQLQQSGTVLARPGASVKMSCEASGYTFTNYWMHWVKQRPGQGLEWIGAIYPGNSDTSYIQKFKGKAKLTAVTSTTSVYMELSSLTNEDSAVYYCTLYDGYYVFAYWGQGTLVTVSA
VL: EIVLTQSPVTLSVTPGDSVSLSCRASRDISNNLHWFQQTSHESPRLLIKYASQSMSGIPSRFSGSGSGTDFTLSINSVETEDFGMYFCQQTNSWPYTFGGGTKLEIK
modifications: Fab

Assays:
[1] = test system: TF-induced clot formation/strength; assay: Tissue factor-triggered thrombelastography (TEG), clot strength; assay type: cell-based; settings: GPIIb/IIIa antagonists added to TEG cup with CaCl2 and TF; mimics platelet removal from whole blood
Description: Thrombelastography: Clot formation was monitored at 37° C. in an oscillating plastic cylindrical cuvette (“cup”) and a coaxially suspended stationary piston (“pin”) with a 1 mm clearance between the surfaces, using a computerized Thrombelastograph (CTEG Model 3000, Haemoscope, Skokie, Ill.) as described by Mousa et al., Athero Thromb Vasc Biol 2000. The cup oscillates 4°45′ ( 1/12 radian) in either direction every 4.5 seconds, with a 1 second mid-cycle stationary period; resulting in a frequency of 0.1 Hz and a maximal shear rate of 0.1 per second. The pin is suspended by a torsion wire that acts as a torque transducer. […] The torque experienced by the pin (relative to the cup's oscillation) is plotted as a function of time (Essel et al., J Cardiovascular Anesth., 7:410-415, 1993; Mousa et al., Arteriosclerosis Thromb Vasc Biol., 20:1162-1167, 2000). The amplitude on the TEG tracing is a measure of the rigidity of the clot; the peak strength or the shear elastic modulus attained by the clot, G, is a function of clot rigidity and can be calculated from the maximal amplitude (MA) of the TEG (Mousa et al., Arteriosclerosis Thromb Vasc Biol., 20:1162-1167, 2000).
Platelet Contribution to Clot Strength: To assess the effect of the TF modification on peak clot strength (G) was measured with and without the addition of TF in paired samples of WB and PRP. To document the contribution of activated platelets to the elastic modulus of fibrin clots, the effect of platelet number was measured by serially diluting PRP with PPP. The platelet count of each dilution was measured before performing TEG. Tissue factor-triggered TEG was performed with increasing concentrations added to the TEG cups. […] The Thrombelastograph maximum amplitude (MA) for platelets MA (PLT)) was calculated by subtracting the MA from a platelet-poor plasma (PPP) sample MA (PPP) determined in one TEG well from that of whole blood MA (WB) run simultaneously in the second TEG well.

platelet aggregation = settings: combined with LMWH; 0.5 IU/ml thrombin; cited from earlier work
thrombosis = settings: U.S. Pat. No. 6,103,705, cited from earlier work

Molecule | maximal blockade (clot strength) [1] [%] | effect of sub-therapeutic concentrations on the dose-response relationship of LMWH (platelet aggregation) | anti-thrombotic effect on co-administration with the LMWH enoxaparin (thrombosis; intravenous, sub-effective or reduced levels) | anti-thrombotic effect on co-administration with standard heparin (thrombosis; same reduced level of the GPIIb/IIIa antagonist)
CCCCOC(=O)N[C@@H](CNC(=O)C[C@H]1CC(c2ccc(C(=N)N)cc2)=NO1)C(=O)OC [roxifiban] | 80 | significant enhancement (synergy) of anti-thrombotic efficacy |  | 
CCCCS(=O)(=O)N[C@@H](Cc1ccc(OCCCCC2CCNCC2)cc1)C(=O)O [BSPBPA] |  |  | enhanced anti-thrombotic effect | This was not the case
CCCCOC(=O)N[C@@H](CNC(=O)C[C@H]1CC(c2ccc(C(=N)N)cc2)=NO1)C(=O)O [XV459] | 80 |  |  | 
B1 | 80 | significant enhancement (synergy) of anti-thrombotic efficacy |  | 
